Patent US20240309003A1, “HETEROCYCLIC COMPOUNDS AS TRIGGERING RECEPTOR EXPRESSED ON MYELOID CELLS 2 AGONISTS AND METHODS OF USE” (Vigil Neuroscience, Inc., priority 2021, published 2024)

Biological target: T1, human TREM2 (Homo sapiens, UniProt Q9NZC2)
T1 construct: expressed in transfected cells; host or cells: HEK293T
Assay: TREM2 agonist potency by cellular phosphorylation of Syk (AlphaLisa) in HEK293T-hTREM2 cells
Type: cell-based
Details: HEK293 cells expressing human TREM2 and DAP12, Table D
Method: In Vitro Measurement of Triggering Receptor Expressed on Myeloid Cells 2 Activity Using Cellular Phosphorylation of Spleen Tyrosine Kinase (“Syk”) Assays
Measurement of TREM2 agonist potency was done using a HEK cell line expressing human TREM2 and DAP12 (HEK293T-hTREM2 cells). Binding of small molecules to, and activation of, TREM2 increases the phosphorylation of Syk. The resultant levels of Syk phosphorylation are measured using a commercial AlphaLisa reagent kit. To perform the assay, HEK-hTREM2 cells were plated at 14,000 cells per well in a 384 well plate, in 25 μL of complete growth media and incubated at 37° C., 5% CO2 for 20-24 hours.
Prior to the assay, test compounds were diluted in the 384 well plates in assay buffer and allowed to equilibrate for 30 minutes. Growth media was removed from cell plates by inversion on blotting paper, and 25 μL of test articles in assay buffer was added to cells. Cells were incubated for 45 minutes at room temperature. After 45 minutes, assay buffer was removed and 10 μL of lysis buffer was added. Plates were shaken for 20 minutes at 350 RPM at room temperature. After complete lysis, AlphaLisa reagents were added to the lysate, and fluourescence intensity was measured using a Perkin Elmer Envision plate reader. Intensities were used to generate a standard curve, and % activation was calculated. Curve fitting was performed using Prism v9 software, log(agonist) vs response-variable slope (four parameters), and EC50s were calculated from the curve fit.
This assay may be used to test any of the compounds described herein to assess and characterize a compound's ability to act as an agonist of TREM2.

T1 sequence (Q9NZC2 19-230): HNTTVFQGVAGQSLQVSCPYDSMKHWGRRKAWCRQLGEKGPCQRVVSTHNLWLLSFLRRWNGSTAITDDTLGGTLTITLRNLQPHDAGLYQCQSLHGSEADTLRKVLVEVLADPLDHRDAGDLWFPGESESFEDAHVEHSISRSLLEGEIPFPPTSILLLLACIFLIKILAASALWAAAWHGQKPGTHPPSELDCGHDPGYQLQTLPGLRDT
T1 sequence (O43914 22-113 partner): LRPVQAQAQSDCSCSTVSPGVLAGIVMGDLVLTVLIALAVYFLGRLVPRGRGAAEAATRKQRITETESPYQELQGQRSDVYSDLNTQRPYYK

Row | Compound | EC50 [nM]
1 | Cc1nc2nc([C@H]3CCO[C@@H](c4cnn(C5CC5)c4)C3)nc(C3CCC(F)(F)CC3)c2nc1C [Example 180, 2-((2R,4S)-2-(1-cyclopropyl-1H-pyrazol-4-yl)tetrahydro-2H-pyran-4-yl)-4-(4,4-difluorocyclohexyl)-6,7-dimethylpteridine] | < 50
2 | Cc1nc2nc(N3CCO[C@@H](c4cc[nH]c(=O)c4)C3)nc(C34CC(C(F)(F)F)(C3)C4)c2nc1C [Example 198, (S)-4-(4-(6,7-dimethyl-4-(3-(trifluoromethyl)bicyclo[1.1.1]pentan-1-yl)pteridin-2-yl)morpholin-2-yl)pyridin-2(1H)-one] | < 50
3 | Cc1cnc2c(-c3ccc(Cl)cc3F)nc([C@H]3C[C@@H](C)O[C@@H](c4cnn(C5CC5)c4)C3)nc2n1 [Example 129, 4-(4-chloro-2-fluorophenyl)-2-((2R,4S,6R)-2-(1-cyclopropyl-1H-pyrazol-4-yl)-6-methyltetrahydro-2H-pyran-4-yl)-7-methylpteridine] | 50 to 500
4 | [2H]C([2H])([2H])c1ccc(-c2nc([C@@H]3CCO[C@H](c4cnn(C([2H])([2H])[2H])c4)C3)nc3nc(C([2H])([2H])[2H])c(C([2H])([2H])[2H])nc23)cc1 [Example 174, 6,7-bis(methyl-d3)-2-((2S,4R)-2-(1-(methyl-d3)-1H-pyrazol-4-yl)tetrahydro-2H-pyran-4-yl)-4-(4-(methyl-d3)phenyl)pteridine] | 3000 to 100000
5 | Cc1nc2nc([C@H]3CCO[C@@H](c4cnn(C5CC5)c4)C3)nc(C34CC(C(C)C)(C3)C4)c2nc1C [Example 127, 2-((2R,4S)-2-(1-cyclopropyl-1H-pyrazol-4-yl)tetrahydro-2H-pyran-4-yl)-4-(3-isopropylbicyclo[1.1.1]pentan-1-yl)-6,7-dimethylpteridine] | < 50
6 | Cc1cnc2c(C34CC(C(F)(F)F)(C3)C4)nc([C@H]3C[C@@H](C)O[C@@H](c4cnn(C5CC5)c4)C3)nc2n1 [Example 140, 2-((2R,4S,6R)-2-(1-cyclopropyl-1H-pyrazol-4-yl)-6-methyltetrahydro-2H-pyran-4-yl)-7-methyl-4-(3-(trifluoromethyl)bicyclo[1.1.1]pentan-1-yl)pteridine] | 500 to 3000
7 | Cc1cnc2c(C34CC(C(F)(F)F)(C3)C4)nc(N3C[C@@H](c4cnn(C5CC5)c4)O[C@@H](C)C3)nc2n1 [Example 125, (2R,6S)-2-(1-cyclopropyl-1H-pyrazol-4-yl)-6-methyl-4-(7-methyl-4-(3-(trifluoromethyl)bicyclo[1.1.1]pentan-1-yl)pteridin-2-yl)morpholine] | < 50
8 | Cc1cc([C@@H]2C[C@H](c3nc(-c4cc(F)c(Cl)c(F)c4)c4nc(C)c(C)nc4n3)CCO2)ccn1 [Example 132, 4-(4-chloro-3,5-difluorophenyl)-6,7-dimethyl-2-((2S,4R)-2-(2-methylpyridin-4-yl)tetrahydro-2H-pyran-4-yl)pteridine] | 3000 to 100000
9 | Cc1cc([C@H]2C[C@@H](c3nc(-c4cc(F)c(Cl)c(F)c4)c4nc(C)c(C)nc4n3)CCO2)ccn1 [Example 133, 4-(4-chloro-3,5-difluorophenyl)-6,7-dimethyl-2-((2R,4S)-2-(2-methylpyridin-4-yl)tetrahydro-2H-pyran-4-yl)pteridine] | < 50
10 | Cc1nc2nc([C@@H]3C[C@@H](C)O[C@@H](c4cnn(C5CC5)c4)C3)nc(-c3cc(F)c(F)cc3F)c2nc1C [Example 158, 2-((2R,4R,6R)-2-(1-cyclopropyl-1H-pyrazol-4-yl)-6-methyltetrahydro-2H-pyran-4-yl)-6,7-dimethyl-4-(2,4,5-trifluorophenyl)pteridine] | 50 to 500
11 | Cc1nc2nc([C@@H]3CCO[C@H](c4cccc(=O)n4C)C3)nc(-c3ccc(F)cc3F)c2nc1C [Example 202] | 500 to 3000
12 | Cc1nc2nc([C@@H]3CCO[C@H](c4cnn(C5CC(F)C5)c4)C3)nc(C34CC(C(F)(F)F)(C3)C4)c2nc1C (stereo in doubt) [Example 134, 2-((2S,4R)-2-(1-(3-fluorocyclobutyl)-1H-pyrazol-4-yl)tetrahydro-2H-pyran-4-yl)-6,7-dimethyl-4-(3-(trifluoromethyl)bicyclo[1.1.1]pentan-1-yl)pteridine] | < 50

The next lines start with the values.

Row | EC50 [nM] | Compound
13 | 50 to 500 | Cc1ccc(-c2nc(N3C[C@@H](C)O[C@@H](c4cnn(C5CC5)c4)C3)nc3nc(C)c(C)nc23)s1 [Example 244, (2S,6R)-2-(1-cyclopropyl-1H-pyrazol-4-yl)-4-(6,7-dimethyl-4-(5-methylthiophen-2-yl)pteridin-2-yl)-6-methylmorpholine]
14 | < 50 | Cc1nc2cc([C@H]3CCO[C@@H](c4cnn(C5CC5)c4)C3)nc(-c3ccc(C(F)(F)F)cc3F)c2nc1C [Example 211, 7-((2R,4S)-2-(1-cyclopropyl-1H-pyrazol-4-yl)tetrahydro-2H-pyran-4-yl)-5-(2-fluoro-4-(trifluoromethyl)phenyl)-2,3-dimethylpyrido[3,4-b]pyrazine]
15 | < 50 | Cc1ccc2c(-c3ccc(C(F)(F)F)cc3)nc([C@H]3CCO[C@@H](c4cnn(C5CC5)c4)C3)nc2n1 [Example 217, 2-((2R,4S)-2-(1-cyclopropyl-1H-pyrazol-4-yl)tetrahydro-2H-pyran-4-yl)-7-methyl-4-(4-(trifluoromethyl)phenyl)pyrido [2,3-d]pyrimidine]
16 | < 50 | Cc1nc2nc(-c3ccc(Cl)cc3F)cc(C3CCO[C@@H](c4cnn(C5CC5)c4)C3)c2nc1C (stereo partly drawn) [Example 235, 6-(4-chloro-2-fluorophenyl)-8-((2R)-2-(1-cyclopropyl-1H-pyrazol-4-yl)tetrahydro-2H-pyran-4-yl)-2,3-dimethylpyrido[2,3-b]pyrazine]
17 | < 50 | Cc1nc2nc(N3CCN(C)C(c4cnn(C5CC5)c4)C3)nc(-c3ccc(Cl)cc3F)c2nc1C (centres unmarked) [Example 205, 4-(4-chloro-2-fluorophenyl)-2-(3-(1-cyclopropyl-1H-pyrazol-4-yl)-4-methylpiperazin-1-yl)-6,7-dimethylpteridine]

Same assay, conditions: HEK293 cells expressing human TREM2 and DAP12, Table D-2

Row | EC50 [nM] | Compound
18 | 500 to 3000 | Cc1nc2cc([C@H]3CCO[C@@H](c4cnn(C5CC5)c4)C3)nc(-c3ccc(F)cc3F)c2nc1COCC1COC1 [Example I-1505, 7-((2R,4S)-2-(1-cyclopropyl-1H-pyrazol-4-yl)tetrahydro-2H-pyran-4-yl)-5-(2,4-difluorophenyl)-2-methyl-3-((oxetan-3-ylmethoxy)methyl)pyrido[3,4-b]pyrazine]
19 | 50 to 500 | Cc1nc2nc([C@H]3CCO[C@@H](c4cnn(C5CC5)c4)C3)nc(-c3ccc(C4CC4)cc3F)c2nc1C [Example I-1187, 2-((2R,4S)-2-(1-cyclopropyl-1H-pyrazol-4-yl)tetrahydro-2H-pyran-4-yl)-4-(4-cyclopropyl-2-fluorophenyl)-6,7-dimethylpteridine]
20 | < 50 | Cc1nc2cc([C@H]3CCO[C@@H](c4cnn(C5CC5)c4)C3)nc(-c3ccc(F)cc3F)c2nc1C(F)F [Example I-1552, 7-((2R,4S)-2-(1-cyclopropyl-1H-pyrazol-4-yl)tetrahydro-2H-pyran-4-yl)-3-(difluoromethyl)-5-(2,4-difluorophenyl)-2-methylpyrido[3,4-b]pyrazine]
21 | 50 to 500 | Cc1nc2nc([C@@H]3CCO[C@H](c4cnc(C5CC5)o4)C3)nc(-c3ccc(F)cc3F)c2nc1C [Example I-1700, 2-cyclopropyl-5-[(2S,4R)-4-[4-(2,4-difluorophenyl)-6,7-dimethyl-pteridin-2-yl]tetrahydropyran-2-yl]oxazole]
22 | 50 to 500 | CCCc1ccc(-c2nc([C@H]3CCO[C@@H](c4cnn(C5CC5)c4)C3)nc3nc(C)c(C)nc23)c(F)c1 [Example I-1197]
23 | 500 to 3000 | COC1(c2nc(-c3ccc(Cl)cc3F)c3nc(C)c(C)nc3n2)CCO[C@@H](c2cnn(C3CC3)c2)C1 (stereo partly drawn) [Example I-1210, 4-(4-chloro-2-fluorophenyl)-2-((2R)-2-(1-cyclopropyl-1H-pyrazol-4-yl)-4-methoxytetrahydro-2H-pyran-4-yl)-6,7-dimethylpteridine]
24 | < 50 | COc1nc2c(-c3ccc(Cl)cc3F)nc([C@@H]3CCO[C@H](c4cnn(C5CC5)c4)C3)nc2nc1C (racemic) [Example I-1221, 4-(4-chloro-2-fluoro-phenyl) −6-methoxy-7-methyl-2-[rac-(2S,4R)-2-(1-cyclopropylpyrazol-4-yl)tetrahydropyran-4-yl]pteridine]
25 | 500 to 3000 | Cc1nc2nc(N3CCCO[C@H](c4cnn(C5CC5)c4)C3)nc(-c3ccc(F)cc3F)c2nc1C (stereo in doubt) [Example I-1144, 2-(1-cyclopropyl-1H-pyrazol-4-yl)-4-(4-(2,4-difluorophenyl)-6,7-dimethylpteridin-2-yl)-1,4-oxazepane]
26 | 50 to 500 | Cc1nc2nc(N3C[C@@H](c4cnn(C(F)F)c4)O[C@@H](C4CC4)C3)nc(-c3ccc(C(F)(F)F)cc3F)c2nc1C [Example I-1712, (2S,6R)-2-cyclopropyl-6-[1-(difluoromethyl)pyrazol-4-yl]-4-[4-[2-fluoro-4-(trifluoromethyl)phenyl]-6,7-dimethyl-pteridin-2-yl]morpholine]
